One data set in a line: in vitro. Conditions: human, neonatal keratinocytes.
The target in data set [1] is T1, Retinoic acid receptor gamma (Homo sapiens, UniProt P13631).
T1 sequence (P13631 whole entry): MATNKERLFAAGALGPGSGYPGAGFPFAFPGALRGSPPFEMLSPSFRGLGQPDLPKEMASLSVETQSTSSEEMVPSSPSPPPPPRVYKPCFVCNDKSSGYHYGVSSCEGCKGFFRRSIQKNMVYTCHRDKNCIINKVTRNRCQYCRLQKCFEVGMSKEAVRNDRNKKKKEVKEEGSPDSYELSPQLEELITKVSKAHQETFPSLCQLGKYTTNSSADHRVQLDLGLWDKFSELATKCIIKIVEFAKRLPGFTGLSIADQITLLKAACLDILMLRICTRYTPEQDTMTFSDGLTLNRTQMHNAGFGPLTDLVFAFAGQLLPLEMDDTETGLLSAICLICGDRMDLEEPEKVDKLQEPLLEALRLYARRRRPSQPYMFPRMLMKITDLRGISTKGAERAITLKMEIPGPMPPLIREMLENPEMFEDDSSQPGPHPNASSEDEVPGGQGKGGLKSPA
Description: Inverse agonist activity at GAL4 DBD-fused RARgamma LBD (unknown origin) expressed in human HG5LN cells after 18 hrs by luciferase reporter gene assay

The nature of another data set: physchem. Conditions: buffer, pH 6.5.
In data set [2] the target is T2, Nuclear receptor ROR-gamma (Homo sapiens, UniProt P51449).
T2 sequence (P51449 whole entry): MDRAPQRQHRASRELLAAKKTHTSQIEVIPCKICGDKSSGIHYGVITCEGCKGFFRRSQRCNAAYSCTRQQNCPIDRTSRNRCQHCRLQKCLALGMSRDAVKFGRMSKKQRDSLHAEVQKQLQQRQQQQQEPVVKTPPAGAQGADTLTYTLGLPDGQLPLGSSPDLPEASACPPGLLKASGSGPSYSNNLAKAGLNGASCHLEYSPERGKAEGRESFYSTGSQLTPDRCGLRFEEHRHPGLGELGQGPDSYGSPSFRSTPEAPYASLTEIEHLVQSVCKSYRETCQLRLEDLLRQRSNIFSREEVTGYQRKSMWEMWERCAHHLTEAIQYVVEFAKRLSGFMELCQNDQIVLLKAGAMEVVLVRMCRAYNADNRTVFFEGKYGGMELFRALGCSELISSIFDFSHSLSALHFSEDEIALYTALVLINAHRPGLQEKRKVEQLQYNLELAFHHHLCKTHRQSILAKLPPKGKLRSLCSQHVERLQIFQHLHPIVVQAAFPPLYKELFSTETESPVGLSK
Description: Inverse agonist activity at GAL4 DBD-fused RORgammat LBD (unknown origin) expressed in HG5LN cells after 18 hrs by luciferase reporter gene assay

Description for in vitro: Photocytotoxicity against human neonatal keratinocytes assessed as decrease in cell viability by measuring ratio of IC50 in presence of UV to IC50 in absence of UV after 30 mins by neutral red dye based assay

For `O=C(O)c1ccc(-n2nc(Oc3c(Cl)cccc3Cl)c3cccc(F)c32)cc1`, the selectivity ratio at 0.5 h in “in vitro” came to 30. Moreover, the IC50 (usually the midpoint of a concentration-inhibition curve) in data set [1] amounted to 7.6 µM; in data set [2], 0.088 µM. In the data set “physchem”, the logD (commonly lipophilicity at a set pH, counting ionised and neutral species) came to 2.8.
In the case of `Cc1ccccc1Sc1nn(-c2ccc(C(=O)O)cc2)c2ccc(C(=O)N(C)C)cc12`, the IC50 in data set [1] and in data set [2] was greater than 10 µM each time. The same compound yielded a log distribution coefficient (logD) in “physchem” of 1.4.
Consider `O=C(O)c1ccc(-n2nc(Oc3c(Cl)cccc3Cl)c3ccccc32)nc1`, for which, in “in vitro”, the selectivity ratio at 0.5 h is 90. Also, the IC50 stood at 1.9 µM in data set [1] and 1.1 µM in data set [2]. The compound also showed a logD in the data set “physchem” of 2.9.
For `CCc1nn(C)c(CC)c1Oc1nn(-c2ccc(C(=O)O)cc2)c2ccccc12`, in that order: 121, 9.1 µM, 4.8 µM and 1.6.
Turning to `CN(C)C(=O)c1ccc2c(c1)c(Sc1cc(Cl)ccc1Cl)nn2-c1ccc(C(=O)O)cc1`, the results for the IC50 in data set [1] and in data set [2] were greater than 10 µM and 4.3 µM, respectively. In “physchem”, the logD amounted to 1.9.
The like results for `CCS(=O)(=O)c1ccc(CC(=O)Nc2nc(-c3cccc(Cl)c3)c(C(=O)c3ccccc3Cl)s2)cc1` were, in that order, greater than 10 µM, 0.08 µM and 5.2.
The like results for `CN(Cc1ccccc1)C(=O)c1ccc2c(c1)c(Sc1c(Cl)cccc1Cl)nn2-c1ccc(C(=O)O)cc1` were, in that order, greater than 10 µM, greater than 10 µM and 2.9.
For `CN1CCN(C(=O)c2ccc3c(c2)c(Sc2c(Cl)cccc2Cl)nn3-c2ccc(C(=O)O)cc2)CC1`, in that order: 7.7 µM, 9.2 µM and 1.
For the compound `O=C(O)c1cc(F)c(-n2nc(Oc3c(Cl)cccc3Cl)c3ccccc32)c(F)c1`, the selectivity ratio at 0.5 h in “in vitro” was 16. Besides, the IC50 was greater than 10 µM in data set [1] and 0.31 µM in data set [2]. For the same compound, the logD in “physchem” was 2.9.
For `O=C(O)c1ccc(-n2nc(Sc3c(Cl)cccc3Cl)c3cc(C(=O)N4CC(F)(F)C4)ccc32)cc1`, the IC50 in data set [1] was greater than 10 µM; in data set [2], 0.72 µM. Besides, the logD in the data set “physchem” turned out to be 2.3.
In the case of `O=C(O)[C@H]1CC[C@H](n2nc(Oc3c(Cl)cccc3Cl)c3ccccc32)CC1`, the selectivity ratio at 0.5 h in the data set “in vitro” was 41. Also, the IC50 in data set [1] and in data set [2] was greater than 10 µM throughout. In the data set “physchem”, this compound yielded a logD of 3.1.
As to `O=C(O)c1ccc(-n2nc(Sc3c(Cl)cccc3Cl)c3cc(C(=O)N4CCC4)ccc32)cc1`, the IC50 in data set [1] turned out to be 4.1 µM; in data set [2], 1.2 µM. The logD in the data set “physchem” was found to be 1.7.
The like results for `O=C(O)c1ccc(-n2nc(S(=O)(=O)c3c(Cl)cccc3Cl)c3ccccc32)cc1` were, in that order, 8.4 µM, 4.8 µM and 1.8.
Take `Cc1cccc2c(Oc3c(Cl)cccc3Cl)nn(-c3ccc(C(=O)O)cc3)c12`: the IC50 in data set [1] and in data set [2] was greater than 10 µM throughout. The compound further yielded a logD in “physchem” of 2.6.
`CN(C)C(=O)c1ccc2c(c1)c(Sc1ccccc1)nn2-c1ccc(C(=O)O)cc1`: the IC50 is 3.5 µM in data set [1] and greater than 10 µM in data set [2]. For the same compound, the logD in the data set “physchem” was 1.
For `Cc1cc(C)c(Sc2nn(-c3ccc(C(=O)O)cc3)c3ccc(C(=O)N(C)C)cc23)c(C)c1`, in that order: greater than 10 µM, 2.7 µM and 2.1.
For `CN(C)C(=O)c1ccc2c(-c3ccc(C(=O)O)cc3)nn(C(=O)c3c(Cl)cccc3Cl)c2c1`, in that order: greater than 10 µM, 0.054 µM and 1.3.
On to `CN(C)C(=O)c1ccc2c(Oc3c(Cl)cccc3Cl)nn(-c3ccc(C(=O)O)cc3)c2c1`, for which, in “in vitro”, the selectivity ratio at 0.5 h came out at 18. Also, the IC50 in data set [1] and in data set [2] was greater than 10 µM throughout. In “physchem”, this compound gave a logD of 1.8.
With `N#Cc1ccc2c(c1)c(Oc1c(Cl)cccc1Cl)nn2-c1ccc(C(=O)O)cc1`, the selectivity ratio at 0.5 h in “in vitro” was determined as 138. For the same compound, the IC50 in data set [1] is 1.4 µM; in data set [2], greater than 10 µM. In addition, the logD in “physchem” was determined as 2.6.
For `O=C(O)c1ccc(-n2nc(Oc3c(Cl)cccc3Cl)c3ccccc32)c(F)c1`, in that order: 32, greater than 10 µM, 0.24 µM and 2.8.
As for `CCN(C)C(=O)c1ccc2c(c1)c(Sc1c(Cl)cccc1Cl)nn2-c1ccc(C(=O)O)cc1`, the IC50 in data set [1] was greater than 10 µM; in data set [2], 6.5 µM. Besides, in “physchem”, the logD stood at 1.9.
For the compound `Clc1cccc(Cl)c1Oc1n[nH]c2ccccc12`, in “in vitro”, the selectivity ratio at 0.5 h stood at 1.6. Also, the values for the IC50 in data set [1] and in data set [2] were 5.7 µM and greater than 10 µM, respectively. The compound further displayed a log distribution coefficient (logD) in “physchem” of 4.9.
Consider `O=C(O)c1ccc(-n2nc(Sc3c(Cl)cccc3Cl)c3cc(C(=O)N4CCCC4)ccc32)cc1`, for which the figures for the IC50 in data set [1] and in data set [2] were greater than 10 µM and 2.6 µM, respectively. This compound also displayed a logD in “physchem” of 1.9.
For `Cc1ccc([C@@H](NC(=O)Cc2ccc3oc([C@@H](O)c4c(C)noc4C)cc3c2)c2ccccc2)c(C)c1`, in that order: greater than 10 µM, 0.044 µM and 4.7.
With `Cc1cc(C(=O)O)ccc1-n1nc(Oc2c(Cl)cccc2Cl)c2ccccc21`, the selectivity ratio at 0.5 h in the data set “in vitro” was found to be 41. The IC50 came out at 6.2 µM in data set [1] and 3.6 µM in data set [2]. This compound also had a logD in the data set “physchem” of 3.
Take `CN(C)C(=O)c1ccc2c(c1)c(Nc1c(Cl)cccc1Cl)nn2-c1ccc(C(=O)O)cc1`: the IC50 in data set [1] was greater than 10 µM; in data set [2], 3.6 µM. This compound also gave a logD in the data set “physchem” of 0.9.
The like results for `CN(CCO)C(=O)c1ccc2c(c1)c(Sc1c(Cl)cccc1Cl)nn2-c1ccc(C(=O)O)cc1` were, in that order, greater than 10 µM, greater than 10 µM and 0.8.
For the compound `CN(c1c(Cl)cccc1Cl)c1nn(-c2ccc(C(=O)O)cc2)c2ccccc12`, in “physchem”, the logD worked out at 2.6. For the same compound, the IC50 in data set [2] was greater than 10 µM.
For `O=C(O)c1ccc(-n2nc(Cc3c(Cl)cccc3Cl)c3ccccc32)cc1`, the IC50 in data set [1] was determined as 6.8 µM; in data set [2] it was 1.8 µM. The compound further displayed a logD in the data set “physchem” of 2.8.
On to `Cc1cccc2c1c(Oc1c(Cl)cccc1Cl)nn2-c1ccc(C(=O)O)cc1`, for which, in the data set “in vitro”, the selectivity ratio at 0.5 h worked out at 19. Moreover, the IC50 in data set [1] was found to be 1.1 µM; in data set [2] it was 0.82 µM. For the same compound, in “physchem”, the logD amounted to 3.6.
The like results for `O=C(O)c1ccc(-n2nc(Oc3c(Cl)cccc3Cl)c3ncccc32)cc1` were, in that order, 11, 6.8 µM, 2.1 µM and 1.3.
For `O=C(O)[C@H]1CC[C@@H](n2nc(Oc3c(Cl)cccc3Cl)c3ccccc32)CC1`, in that order: 108, greater than 10 µM, greater than 10 µM and 3.4.
Regarding `O=C(O)c1ccc(-n2nc(Nc3c(Cl)cccc3Cl)c3ccccc32)cc1`, the figures for the IC50 in data set [1] and in data set [2] were greater than 10 µM and 2.5 µM, respectively. The log distribution coefficient (logD) in the data set “physchem” amounted to 1.9.
Take `O=C(O)c1ccc(-n2nc(Oc3c(Cl)cccc3Cl)c3ccccc32)cc1`: the selectivity ratio at 0.5 h in the data set “in vitro” was greater than 62. The IC50 worked out at 1.4 µM in data set [1] and 0.14 µM in data set [2]. In the data set “physchem”, this compound showed a logD of 2.8.
For `CS(=O)(=O)c1ccc2c(c1)c(Oc1c(Cl)cccc1Cl)nn2-c1ccc(C(=O)O)cc1`, the selectivity ratio at 0.5 h in “in vitro” came out at 87. For the same compound, the IC50 in data set [1] is 4.5 µM; in data set [2], greater than 10 µM. This compound also registered a log distribution coefficient (logD) in “physchem” of 1.7.
For `O=C(O)c1ccc(-n2nc(Oc3c(Cl)cccc3Cl)c3cccnc32)cc1`, in that order: 190, 3.8 µM, 1.2 µM and 2.3.
Regarding `CN(C)C(=O)c1ccc2c(c1)c(Oc1c(Cl)cccc1Cl)nn2-c1ccc(C(=O)O)cc1`, the IC50 in data set [1] is greater than 10 µM; in data set [2], 0.3 µM. The logD in “physchem” came out at 1.5.
As for `O=C(O)c1ccc(-n2nc([S+]([O-])c3c(Cl)cccc3Cl)c3ccccc32)cc1` (stereo not given), the IC50 stood at 5.6 µM in data set [1] and 6.2 µM in data set [2]. The compound further registered a logD in the data set “physchem” of 1.2.
For `O=C(O)c1ccc(-n2nc(Sc3c(Cl)cccc3Cl)c3cc(C(=O)N4CCOCC4)ccc32)cc1`, in that order: 4.2 µM, 6 µM and 1.5.
For `CNC(=O)c1ccc2c(c1)c(Sc1c(Cl)cccc1Cl)nn2-c1ccc(C(=O)O)cc1`, in that order: 2.7 µM, greater than 10 µM and 1.2.

The record behind these values is ChEMBL document CHEMBL3867469, “Discovery of phenoxyindazoles and phenylthioindazoles as RORγ inverse agonists” (Bioorg Med Chem Lett, 2016).
